Measurements published in patent US12371454B2, “Cyclic peptide compound having Kras inhibitory action” (priority 2019, dated 2025).
Starred links: 1 amine or outer side, 2 acyl side, 3 side chain; linkers in the order of their positions; H or OH if unused. Positions of bridges follow the written chain, without caps; N, C: chain ends. Non-standard residues stand in square brackets, D forms with d. Residues, ends and D or L forms follow the SMILES beside them. *: point of attachment. hPhe(3,5-F2-4-CF3) = N[C@@H](CCc1cc(F)c(C(F)(F)F)c(F)c1)C(=O)O; hPhe(3-Cl-4-CF3) = N[C@@H](CCc1ccc(C(F)(F)F)c(Cl)c1)C(=O)O; NMePhe(4-CF3) = CN[C@@H](Cc1ccc(C(F)(F)F)cc1)C(=O)O; hPhe(4-CF3) = N[C@@H](CCc1ccc(C(F)(F)F)cc1)C(=O)O; NMePhe(4-Cl) = CN[C@@H](Cc1ccc(Cl)cc1)C(=O)O; NMedβ3hAla = C[C@H](CC(=O)[*:2])N(C)[*:1]; Phe(3-Cl) = N[C@@H](Cc1cccc(Cl)c1)C(=O)O; X22 = O=C([C@@H]1Cc2ccccc2N1[*:1])[*:2]; NMeGly(cPent) = CN[C@H](C(=O)O)C1CCCC1; Pro(4,4-F2) = O=C(O)[C@@H]1CC(F)(F)CN1; NMeCha = CN[C@@H](CC1CCCCC1)C(=O)O; NMeCba = CN[C@@H](CC1CCC1)C(=O)O; NMeChg = CN[C@H](C(=O)O)C1CCCCC1; NMeF = CN[C@@H](Cc1ccccc1)C(=O)O; dNMeF = CN[C@H](Cc1ccccc1)C(=O)O; NMeβAla = CN(CCC(=O)[*:2])[*:1]; NMeD = CN[C@@H](CC(=O)O)C(=O)O; NMeL = CN[C@@H](CC(C)C)C(=O)O; NMehSer = CN[C@@H](CCO)C(=O)O; NMeV = CN[C@H](C(=O)O)C(C)C; d(β3hA) = C[C@@H](N)CC(=O)O; NMeS = CN[C@@H](CO)C(=O)O; Pip = O=C(O)[C@@H]1CCCCN1; dPip = O=C(O)[C@H]1CCCCN1; NMeA = CN[C@@H](C)C(=O)O; Piperidide = C1CCN(*)CC1; Pyrrolidide = C1CCN(*)C1; Ac5c = NC1(C(=O)O)CCCC1; Aze = O=C(O)[C@@H]1CCN1; Thp = NC1(C(=O)O)CCOCC1; Ac4c = NC1(C(=O)O)CCC1; Sar = CNCC(=O)O; Propyl = CCC*

These molecules were tested against T1, Kras and SOS1 (biotin-tagged human Kras loaded with GDP, His-tagged human SOS1) (Homo sapiens, UniProt P01116, G12D) (assay: Protein-protein interaction inhibition between Kras and SOS1 (KrasGl2D-SOS PPI) using AlphaScreen). Details: AlphaScreen; biotin-tagged human Kras loaded with GDP, His-tagged human SOS1; read-out: KRAS G12D-SOS PPI IC50.
T1 construct: made in house; host or cells: E. coli (stated for Kras only)
T1 sequence (P01116 1-188 isoform P01116-2 G12D): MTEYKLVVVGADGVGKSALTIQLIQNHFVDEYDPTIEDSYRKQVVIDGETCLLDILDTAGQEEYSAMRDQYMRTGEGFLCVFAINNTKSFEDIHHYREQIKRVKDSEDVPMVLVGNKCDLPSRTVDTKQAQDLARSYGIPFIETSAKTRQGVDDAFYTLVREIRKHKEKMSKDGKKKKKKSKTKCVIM
Format: binding
Method in brief: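 Binding between SOS1 and Kras is detected as bead-proximity luminescence: illuminate Ni-conjugated donors (680 nm), collect 520-620 nm emission from streptavidin-conjugated acceptors; Kras carries biotin and GDP loaded after purification, SOS1 carries a His tag.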
In the case of CC[C@H](C)[C@@H]1NC(=O)[C@H](CC(C)C)N(C)C(=O)C[C@@H](C)N(C)C(=O)[C@H](CC2CCC2)N(C)C(=O)C2(CCCC2)NC(=O)[C@@H]2CCCN2C(=O)[C@H](CCc2ccc(C(F)(F)F)c(Cl)c2)NC(=O)CN(C)C(=O)[C@H](CC2CCCCC2)N(C)C(=O)CN(C)C(=O)CN(C)C1=O [Compound 723] (cyclo([Ac5c][NMeCba][NMedβ3hAla][NMeL]I[Sar][Sar][NMeCha][Sar][hPhe(3-Cl-4-CF3)]P)), the IC50 is reported as 0.017 µM. CC[C@H](C)[C@@H]1NC(=O)[C@H](CC(C)C)N(C)C(=O)C[C@@H](C(=O)N2CCCCC2)N(C)C(=O)[C@H](C2CCCCC2)N(C)C(=O)C2(CCCC2)NC(=O)[C@@H]2Cc3ccccc3N2C(=O)[C@H](CCc2ccc(C(F)(F)F)c(Cl)c2)NC(=O)CN(C)C(=O)[C@H](CC2CCCCC2)N(C)C(=O)[C@@H]2CCN2C(=O)CN(C)C1=O [Compound 725] ([NMeL]I[Sar][Aze][NMeCha][Sar][hPhe(3-Cl-4-CF3)][X22][Ac5c][NMeChg][NMeD]-Piperidide; lactam N-11) gave an IC50 of 0.0078 µM. With CC[C@H](C)[C@@H]1NC(=O)[C@H](CC(C)C)N(C)C(=O)C[C@@H](C(=O)N2CCCCC2)N(C)C(=O)[C@H](C2CCCCC2)N(C)C(=O)C2(CCCC2)NC(=O)[C@@H]2CCCCN2C(=O)[C@H](CCc2ccc(C(F)(F)F)c(Cl)c2)NC(=O)CN(C)C(=O)[C@H](CC2CCCCC2)N(C)C(=O)CN(C)C(=O)CN(C)C1=O [Compound 728] ([NMeL]I[Sar][Sar][NMeCha][Sar][hPhe(3-Cl-4-CF3)][Pip][Ac5c][NMeChg][NMeD]-Piperidide; lactam N-11) the IC50 was 0.016 µM. Work on CC[C@H](C)[C@@H]1NC(=O)[C@H](CC(C)C)N(C)C(=O)C[C@@H](C(=O)N(C)C)N(C)C(=O)[C@H](C2CCCC2)N(C)C(=O)[C@H](C)NC(=O)[C@@H](C)NC(=O)[C@H](CCc2ccc(C(F)(F)F)c(Cl)c2)NC(=O)CN(C)C(=O)[C@H](CC2CCCCC2)N(C)C(=O)[C@@H]2CCN2C(=O)[C@H](C)N(C)C1=O [Compound 736] ([NMeL]I[NMeA][Aze][NMeCha][Sar][hPhe(3-Cl-4-CF3)][dA]A[NMeGly(cPent)][NMeD]-NMe2; lactam N-11) yielded an IC50 of 0.037 µM. With CC[C@H](C)[C@@H]1NC(=O)[C@H](CC(C)C)N(C)C(=O)C[C@@H](C)N(C)C(=O)[C@H](C2CCCCC2)N(C)C(=O)C2(CCC2)NC(=O)[C@@H]2CC(F)(F)CN2C(=O)[C@H](CCc2cc(F)c(C(F)(F)F)c(F)c2)NC(=O)CN(C)C(=O)[C@H](CC2CCCCC2)N(C)C(=O)CN(C)C(=O)CN(C)C1=O [Compound 738] (cyclo([Ac4c][NMeChg][NMedβ3hAla][NMeL]I[Sar][Sar][NMeCha][Sar][hPhe(3,5-F2-4-CF3)][Pro(4,4-F2)])) the IC50 was 0.015 µM. CCCOC[C@H]1C(=O)N(C)[C@@H](CC(C)C)C(=O)N[C@H](C(=O)N2CCCC2)CC(=O)N(C)[C@@H](C)C(=O)N[C@@H]([C@@H](C)CC)C(=O)N(C)CC(=O)N(C)CC(=O)N(C)[C@@H](Cc2ccc(Cl)cc2)C(=O)N(C)CC(=O)N[C@@H](CCc2ccc(C(F)(F)F)cc2)C(=O)N[C@@H](CC(C)C)C(=O)N1C [Compound 739] ([NMeA]I[Sar][Sar][NMePhe(4-Cl)][Sar][hPhe(4-CF3)]L[NMeS](Propyl)[NMeL]D-Pyrrolidide; lactam N-11) gave an IC50 of 0.036 µM. Work on CC[C@H](C)[C@@H]1NC(=O)[C@H](CC(C)C)N(C)C(=O)C[C@@H](C)N(C)C(=O)[C@H](CC(C)C)N(C)C(=O)C2(CCOCC2)NC(=O)[C@@H]2CCCN2C(=O)[C@H](CCc2ccc(C(F)(F)F)c(Cl)c2)NC(=O)CN(C)C(=O)[C@H](CC2CCCCC2)N(C)C(=O)CN(C)C(=O)CN(C)C1=O [Compound 742] (cyclo(I[Sar][Sar][NMeCha][Sar][hPhe(3-Cl-4-CF3)]P[Thp][NMeL][NMedβ3hAla][NMeL])) yielded an IC50 of 0.017 µM. Work on CC[C@H](C)[C@@H]1NC(=O)[C@H](CC(C)C)N(C)C(=O)C[C@@H](C(=O)N2CCCCC2)N(C)C(=O)[C@H](CCOC)N(C)C(=O)C2(CCCC2)NC(=O)[C@@H]2CCCN2C(=O)[C@H](CCc2ccc(C(F)(F)F)c(Cl)c2)NC(=O)CN(C)C(=O)[C@H](CC2CCCCC2)N(C)C(=O)CN(C)C(=O)CN(C)C1=O [Compound 744] ([NMeL]I[Sar][Sar][NMeCha][Sar][hPhe(3-Cl-4-CF3)]P[Ac5c][NMehSer](Me)[NMeD]-Piperidide; lactam N-11) yielded an IC50 of 0.0075 µM. With CC[C@H](C)[C@@H]1NC(=O)[C@H](C)N(C)C(=O)C[C@@H](C)NC(=O)[C@H](C(C)C)N(C)C(=O)C2(CCCC2)NC(=O)[C@@H]2CCCN2C(=O)[C@H](CCc2ccc(C(F)(F)F)c(Cl)c2)NC(=O)[C@H]2CCCCN2C(=O)[C@H](CC2CCCCC2)N(C)C(=O)CN(C)C(=O)CN(C)C1=O [Compound 746] (cyclo([Ac5c][NMeV][d(β3hA)][NMeA]I[Sar][Sar][NMeCha][dPip][hPhe(3-Cl-4-CF3)]P)) the IC50 was 0.13 µM. For CC[C@H](C)[C@@H]1NC(=O)[C@H](CC(C)C)N(C)C(=O)C[C@@H](C)N(C)C(=O)[C@H](C2CCCCC2)N(C)C(=O)C2(CCC2)NC(=O)[C@@H]2CC(F)(F)CN2C(=O)[C@H](CCc2ccc(C(F)(F)F)c(Cl)c2)NC(=O)CN(C)C(=O)[C@H](Cc2ccc(C(F)(F)F)cc2)N(C)C(=O)CN(C)C(=O)CN(C)C1=O [Compound 750] (cyclo([Ac4c][NMeChg][NMedβ3hAla][NMeL]I[Sar][Sar][NMePhe(4-CF3)][Sar][hPhe(3-Cl-4-CF3)][Pro(4,4-F2)])), the IC50 was 0.028 µM. CC[C@H](C)[C@@H]1NC(=O)[C@H](C)N(C)C(=O)C[C@@H](C)NC(=O)[C@H](CC(C)C)N(C)C(=O)[C@H](Cc2ccccc2)N(C)C(=O)[C@@H]2CCCN2C(=O)[C@H](CCc2ccc(C(F)(F)F)cc2)NC(=O)CN(C)C(=O)[C@H](Cc2ccc(Cl)cc2)N(C)C(=O)CN(C)C(=O)CN(C)C1=O [Compound 751] (cyclo(I[Sar][Sar][NMePhe(4-Cl)][Sar][hPhe(4-CF3)]P[NMeF][NMeL][d(β3hA)][NMeA])) was tested, and the IC50 was 0.082 µM. In the case of CC[C@H](C)[C@@H]1NC(=O)[C@H](C)N(C)C(=O)C[C@@H](C(=O)N2CCCCC2)NC(=O)[C@H](C(C)C)N(C)C(=O)[C@H](Cc2ccccc2)N(C)C(=O)[C@H](CC(C)C)N(C)C(=O)[C@H](CCc2ccc(C(F)(F)F)cc2)NC(=O)CN(C)C(=O)[C@H](Cc2ccc(Cl)cc2)N(C)C(=O)CN(C)C(=O)CN(C)C1=O [Compound 752] ([NMeA]I[Sar][Sar][NMePhe(4-Cl)][Sar][hPhe(4-CF3)][NMeL][NMeF][NMeV]D-Piperidide; lactam N-11), the IC50 is reported as 0.2 µM. In the case of CC[C@H](C)[C@@H]1NC(=O)CCN(C)C(=O)[C@@H](Cc2ccccc2)N(C)C(=O)[C@H](C2CCCC2)N(C)C(=O)C2(CCCC2)NC(=O)[C@@H]2CCCN2C(=O)[C@H](CCc2ccc(C(F)(F)F)c(Cl)c2)NC(=O)CN(C)C(=O)[C@H](CC2CCCCC2)N(C)C(=O)CN(C)C(=O)CN(C)C1=O [Compound 753] (cyclo([Ac5c][NMeGly(cPent)][dNMeF][NMeβAla]I[Sar][Sar][NMeCha][Sar][hPhe(3-Cl-4-CF3)]P)), the IC50 is reported as 0.035 µM. In the case of CC[C@H](C)[C@@H]1NC(=O)[C@H](C)N(C)C(=O)C[C@@H](C(=O)N2CCCC2)NC(=O)[C@H](CC(C)C)N(C)C(=O)[C@H](Cc2ccccc2)N(C)C(=O)[C@H](CC(C)C)NC(=O)[C@H](Cc2cccc(Cl)c2)NC(=O)CN(C)C(=O)[C@H](Cc2ccc(Cl)cc2)N(C)C(=O)CN(C)C(=O)CN(C)C1=O [Compound 758] ([NMeA]I[Sar][Sar][NMePhe(4-Cl)][Sar][Phe(3-Cl)]L[NMeF][NMeL]D-Pyrrolidide; lactam N-11), the IC50 is reported as 0.14 µM.
